“And” between values parts separate entries of the source, which are not always exact repeats. Equal values may be shown once. Read-outs that look alike come from different tables or passages of the source.
Experiments:
[1] = tested on: KERed from C. parapsilosis; assay: Substrate spectrum of the KERed; assay type: biochemical, Candida parapsilosis; details: for Rel. Activity: substrate 8 mM, activity with 5-oxo-hexanoic acid ethyl ester = 100%, NADH 0.2 mM, pH 7.9; for Acceptance as substrate by the KERed (in words): reduction with NADH
Procedure: (§1) For the following investigation, partially purified enzyme (after Q-sepharose chromatography, 67-times enrichment) was used. […]
5-oxohexanoic acid ethyl ester […]
Corresponding to example 3.B, instead of 5-oxohexanoic acid ethyl ester a series of aromatic and aliphatic ketoesters, ketoacids, ketones, diketones and aldehydes were investigated as to whether they could be reduced enzymatically. For this the compounds were added always in 8 mM final concentration. […] The activity with 5-oxo-hexanoic acid ethyl ester was arbitrarily selected as 100%.

[2] = tested on: KERed from C. parapsilosis; assay: Inhibition study of the KERed (influence of metal cations and reagents); assay type: biochemical, Candida parapsilosis
Excerpt: as §1
5-oxohexanoic acid ethyl ester
TEA-NaOH-buffer, 0.1 M; pH 7.9
The influence of various metal cations and reagents upon the enzymatic activity was investigated in tests in which the test preparation described under example 3.B was used.

[3] = tested on: KERed from Candida parapsilosis; assay: Kinetic characterization of the KERed; assay type: biochemical
[4] = compound 0.1 mM, 35 mM 5-oxohexanoic acid ethyl ester, 0.2 mM NADH, pH 7.9
[5] = compound 1.0 mM, 35 mM 5-oxohexanoic acid ethyl ester, 0.2 mM NADH, pH 7.9
[6] = summary statements of the inhibition study
[7] = referred to 2-butanone, partially purified enzyme

COC(=O)CC(C)=O
Rel. Activity [1]: 67%

CCOC(=O)CCCC(C)=O
Rel. Activity [1]: 100%

CC(=O)CCCC(=O)O
Rel. Activity [1]: 0%

CCC(=O)CC(=O)OC
Rel. Activity [1]: 18%

CCOC(=O)CC(=O)C(C)C
Rel. Activity [1]: 24%

CCOC(=O)CC(=O)c1ccccc1
Rel. Activity [1]: 0%

CCOC(=O)C(C)C(C)=O (stereo not drawn)
Rel. Activity [1]: 70%

CC(=O)CCC(C)=O
Rel. Activity [1]: 46%

O=C1Nc2ccccc2C1=O
Rel. Activity [1]: 0%

O=C1CCCC(=O)C1
Rel. Activity [1]: 0%

CC1CCC(=O)CC1
Rel. Activity [1]: 40%

CC1CCCCC1=O (stereo not drawn)
Rel. Activity [1]: 12%

CCOC(=O)C1CCCCC1=O (stereo not drawn)
Rel. Activity [1]: 16%

CC(=O)c1ccccc1Cl
Rel. Activity [1]: 0%

CC(=O)C(C)C
Rel. Activity [1]: 28%

CC(=O)C(C)(C)O
Rel. Activity [1]: 0%

COC(CC(C)=O)OC
Rel. Activity [1]: 14%

O=CC1CCCCC1
Rel. Activity [1]: 29%

O[C@@H](CS)[C@@H](O)CS (racemic) [1,4-Dithiothreitol]
Residual Activity [2, 4]: 100%
Residual Activity [2, 5]: 100%
Influence on KERed activity (in words) [2, 6]: Stabilization

CC(=O)C(Cl)Cl [1,1-Dichloroacetone]
Km ([3]; partially purified enzyme): 176 µM
Vmax [3, 7]: 45%
Acceptance as substrate by the KERed (in words) [1]: acceptable as substrates

CCCCO [1-butanol]
Km ([3]; partially purified enzyme): 2900 µM
Vmax [3, 7]: 47%

CCCO [1-propanol]
Km ([3]; partially purified enzyme): 3800 µM
Vmax [3, 7]: 47%

c1ccc(-c2ccccn2)nc1 [2,2'-bipyridyl]
Residual Activity ([2]; 2,2'-bipyridyl 0.05 mM): 52%
Residual Activity ([2]; 2,2'-bipyridyl 0.5 mM): 23%
Influence on KERed activity (in words) [2, 6]: Strong inhibition

CCC(=O)CC(C)=O [2,4-hexanedione]
Acceptance as substrate by the KERed (in words) [1]: acceptable as substrates

CC(=O)CC(C)=O [2,4-pentanedione]
Acceptance as substrate by the KERed (in words) [1]: acceptable as substrates

CCC(C)=O [2-Butanone]
Km ([3]; partially purified enzyme): 1480 µM
Vmax of the reference substrate ([3]; partially purified enzyme): 6 U mg
Vmax [3, 7]: 100%
Acceptance as substrate by the KERed (in words) [1]: acceptable as substrates

CCCCCCCCC(C)=O [2-decanone]
Km ([3]; partially purified enzyme): 3960 µM
Vmax [3, 7]: 20%

CCCCCC(C)=O [2-heptanone]
Km ([3]; partially purified enzyme): 97 µM
Vmax [3, 7]: 58%

CCCCC(C)=O [2-hexanone]
Km ([3]; partially purified enzyme): 54 µM
Vmax [3, 7]: 53%

CCC(=O)C(C)C [2-methyl-3-pentanone]
Acceptance as substrate by the KERed (in words) [1]: acceptable as substrates

CCCCCCCC(C)=O [2-nonanone]
Km ([3]; partially purified enzyme): 314 µM
Vmax [3, 7]: 45%
Ki ([3]; substrate inhibition observed, read-out: Kis (substrate inhibition)): 24.9 mM

CCCCCCC(C)=O [2-octanone]
Km ([3]; partially purified enzyme): 324 µM
Vmax [3, 7]: 62%
Acceptance as substrate by the KERed (in words) [1]: acceptable as substrates

CCCC(C)=O [2-pentanone]
Km ([3]; partially purified enzyme): 141 µM
Vmax [3, 7]: 62%
Acceptance as substrate by the KERed (in words) [1]: acceptable as substrates

CC(C)O [2-propanol]
Km ([3]; partially purified enzyme): 2210 µM
Vmax [3, 7]: 183%

CC(=O)C(C)Cl (stereo not drawn) [3-chloro-2-butanone]
Km ([3]; partially purified enzyme): 442 µM
Vmax [3, 7]: 50%
Acceptance as substrate by the KERed (in words) [1]: acceptable as substrates

CC(=O)c1cccc(Cl)c1 [3-chloro-aceto-phenone]
Km ([3]; partially purified enzyme): 15 µM
Vmax [3, 7]: 32%
Acceptance as substrate by the KERed (in words) [1]: acceptable as substrates

CCCCC(=O)CC [3-heptanone]
Km ([3]; partially purified enzyme): 5600 µM
Vmax [3, 7]: 11%

CCCC(=O)CC [3-hexanone]
Km ([3]; partially purified enzyme): 840 µM
Vmax [3, 7]: 10%

CCCCCC(=O)CC [3-octanone]
Km ([3]; partially purified enzyme): 11200 µM
Vmax [3, 7]: 12%

CC(=O)c1ccc(Br)cc1 [4-bromoacetophenone]
Acceptance as substrate by the KERed (in words) [1]: acceptable as substrates

CC(=O)c1ccc(Cl)cc1 [4-chloro-acetophenone]
Km ([3]; partially purified enzyme): 10 µM
Vmax [3, 7]: 19%

CC(=O)c1ccc(F)cc1 [4-fluoroacetophenone]
Acceptance as substrate by the KERed (in words) [1]: acceptable as substrates

CCCC(=O)CCC [4-heptanone]
Km ([3]; partially purified enzyme): 5300 µM
Vmax [3, 7]: 9%

CC[C@H](C)O [(S)-2-butanol]
Km [3]: 600 µM
Vmax [3]: 210%

CC=O [Acetaldehyde]
Km ([3]; partially purified enzyme): 85 µM
Vmax [3, 7]: 129%
Acceptance as substrate by the KERed (in words) [1]: acceptable as substrates

CC(C)=O [Acetone]
Km [3]: 1060 µM
Vmax [3, 7]: 97%

CC(=O)c1ccccc1 [Acetophenone]
Km ([3]; partially purified enzyme): 49 µM
Vmax [3, 7]: 22%
Acceptance as substrate by the KERed (in words) [1]: acceptable as substrates

[Ag+] [Ag^+]
Residual Activity [2, 4]: 0%
Residual Activity [2, 5]: 0%
Influence on KERed activity (in words) [2, 6]: Rapid deactivation

[Ca+2] [Ca^2+]
Residual Activity [2, 4]: 78%
Residual Activity [2, 5]: 68%

[Co+2] [Co^2+]
Residual Activity [2, 4]: 38%
Residual Activity [2, 5]: 12%
Influence on KERed activity (in words) [2, 6]: Rapid deactivation

[Cu+2] [Cu^2+]
Residual Activity [2, 4]: 0%
Residual Activity [2, 5]: 0%
Influence on KERed activity (in words) [2, 6]: Rapid deactivation

CCOC(=O)OC(=O)OCC [Diethyl Pyrocarbonate]
Residual Activity [2, 4]: 100%
Residual Activity [2, 5]: 100%

O=C(O)CN(CCN(CC(=O)O)CC(=O)O)CC(=O)O [EDTA]
Influence on KERed activity (in words) [2]: practically not inhibited
Residual Activity [2]: 100% and 80%

CCOC(=O)CC(=O)CC [Ethyl 3-oxopentanoate]
Km ([3]; partially purified enzyme): 6900 µM
Vmax [3, 7]: 17%

CCOC(=O)CC(=O)CCl [Ethyl 4-chlor-3-oxo-butanoate]
Km ([3]; partially purified enzyme): 3560 µM
Vmax [3, 7]: 10%

CCOC(=O)CC(=O)C(F)(F)F [Ethyl 4-trifluor-3-oxo-butanoate]
Km ([3]; partially purified enzyme): 2000 µM
Vmax [3, 7]: 11%

[Fe+3] [Fe^3+]
Residual Activity [2, 4]: 100%

N[C@@H](CCC(=O)N[C@@H](CS)C(=O)NCC(=O)O)C(=O)O [Glutathione (reduced), Glutathione]
Residual Activity [2, 4]: 100%
Residual Activity [2, 5]: 100%

[Hg+2] [Hg^2+]
Residual Activity [2, 4]: 0%
Residual Activity [2, 5]: 0%
Influence on KERed activity (in words) [2, 6]: Rapid deactivation

NC(=O)CI [Iodoacetamide]
Residual Activity [2, 4]: 77%
Residual Activity [2, 5]: 17.5%
Influence on KERed activity (in words) [2, 6]: Strong inhibition

CO [Methanol]
Vmax [3, 7]: No Reaction

NC(=O)C1=CN([C@@H]2O[C@H](COP(=O)(O)OP(=O)(O)OC[C@H]3O[C@@H](n4cnc5c(N)ncnc54)[C@H](O)[C@@H]3O)[C@@H](O)[C@H]2O)C=CC1 [NADH]
Km ([3]; partially purified enzyme): 38 µM

NC(=O)C1=CN([C@@H]2O[C@H](COP(=O)(O)OP(=O)(O)OC[C@H]3O[C@@H](n4cnc5c(N)ncnc54)[C@H](OP(=O)(O)O)[C@@H]3O)[C@@H](O)[C@H]2O)C=CC1 [NADPH]
Vmax [3, 7]: No Reaction

COC(OC)C(C)=O [Pyruvaldehyde-Dimethyl-acetal]
Km ([3]; partially purified enzyme): 189 µM
Vmax [3, 7]: 24%

CC(=O)CC(=O)OC(C)(C)C [Tert.-Butyl 3-oxo-butanoate]
Km ([3]; partially purified enzyme): 356 µM
Vmax [3, 7]: 71%

CCOC(=O)CC(C)=O [drawing 3]
Rel. Activity [1]: 76%

CCOC(=O)CC(C)=O [drawing 4]
Rel. Activity [1]: 61%

CC(=O)CC(=O)OC(C)(C)C [drawing 5]
Rel. Activity [1]: 137%

CC(=O)CCC(=O)O [drawing 6]
Rel. Activity [1]: 0%

CCOC(=O)CCC(C)=O [drawing 7]
Rel. Activity [1]: 76%

CCOC(=O)CC(=O)C(F)(F)F [drawing 10]
Rel. Activity [1]: 21%

CCOC(=O)CC(=O)CCl [drawing 11]
Rel. Activity [1]: 92%

CCOC(=O)CC(=O)CC [drawing 13]
Rel. Activity [1]: 32%

CCCC(=O)CC(=O)OCC [drawing 14]
Rel. Activity [1]: 51%

CC(=O)CC(C)=O [drawing 18]
Rel. Activity [1]: 15%

CCC(=O)CC(C)=O [drawing 19]
Rel. Activity [1]: 46%

CC(=O)c1ccccc1 [drawing 26]
Rel. Activity [1]: 34%

CC(=O)c1cccc(Cl)c1 [drawing 28]
Rel. Activity [1]: 35%

CC(=O)c1ccc(Br)cc1 [drawing 29]
Rel. Activity [1]: 40%

CC(=O)c1ccc(F)cc1 [drawing 30]
Rel. Activity [1]: 40%

CCC(=O)c1ccccc1 [drawing 31]
Rel. Activity [1]: 0%

CC(=O)C(Cl)Cl [drawing 33]
Rel. Activity [1]: 60%

CC(=O)C(C)Cl (stereo not drawn) [drawing 34]
Rel. Activity [1]: 105%

COCC(C)=O [drawing 35]
Rel. Activity [1]: 53%

CCC(=O)C(C)C [drawing 37]
Rel. Activity [1]: 51%

CCC(C)=O [drawing 38]
Rel. Activity [1]: 48%

CCCC(C)=O [drawing 39]
Rel. Activity [1]: 40%

CCCCCCC(C)=O [drawing 40]
Rel. Activity [1]: 54%

CCCCCC(=O)CC [drawing 41]
Rel. Activity [1]: 33%

CCCC(=O)CC [drawing 43]
Rel. Activity [1]: 4%

COC(OC)C(C)=O [drawing 44]
Rel. Activity [1]: 118%

CC=O [drawing 46]
Rel. Activity [1]: 150%

CCC=O [drawing 47]
Rel. Activity [1]: 127%

CC(C)C=O [drawing 48]
Rel. Activity [1]: 178%

CC(C)C=O [isobutyraldehyde]
Acceptance as substrate by the KERed (in words) [1]: acceptable as substrates

COCC(C)=O [methoxy-2-propanone]
Acceptance as substrate by the KERed (in words) [1]: acceptable as substrates

CCC=O [propionaldehyde]
Acceptance as substrate by the KERed (in words) [1]: acceptable as substrates

CCC(=O)c1ccccc1 [propiophenone]
Acceptance as substrate by the KERed (in words) [1]: acceptable as substrates

— patent US5523223A, “Ketoester reductase for conversion of keto acid esters to optically active hydroxy acid esters” (priority 1992, dated 1996)
